Assay [1] concerns the target CK1ε (Homo sapiens, UniProt P49674). In words: CK1ε kinase assay (Caliper LabChip electrophoretic separation of fluoresceinated peptide substrate and product). It is filed as biochemical. The following applies: 200 pM CK1ε, 50 μM ATP, 1.5 μM peptide, 22 hours at room temperature; read-out: CK1ε IC50 range. As for the experimental part:
(§1) CK1ε and CK1δ Kinase Assays
(§2) The kinase assay was performed in V-bottom 384-well plates. […] The reaction was incubated at room temperature for 22 hours and terminated by adding 45 μl of 35 mM EDTA to each sample. The reaction mixture was analyzed on the Caliper LABCHIP®3000 (Caliper, Hopkinton, Mass.) by electrophoretic separation of the unphosphorylated substrate and phosphorylated product. […] Compounds were dissolved at 10 mM in dimethylsulfoxide (DMSO) and evaluated at eleven concentrations. IC50 values were derived by non-linear regression analysis.

For assay [2], the target named is CK1δ (Homo sapiens, UniProt P48730). In words: CK1δ kinase assay (Caliper LabChip electrophoretic separation of fluoresceinated peptide substrate and product). The following applies: 200 pM CK1δ, 50 μM ATP, 1.5 μM peptide, 22 hours at room temperature; read-out: CK1δ IC50 range. It is filed as biochemical. As for the experimental part:
as §1, §2

Sequence of CK1ε (P49674 whole entry): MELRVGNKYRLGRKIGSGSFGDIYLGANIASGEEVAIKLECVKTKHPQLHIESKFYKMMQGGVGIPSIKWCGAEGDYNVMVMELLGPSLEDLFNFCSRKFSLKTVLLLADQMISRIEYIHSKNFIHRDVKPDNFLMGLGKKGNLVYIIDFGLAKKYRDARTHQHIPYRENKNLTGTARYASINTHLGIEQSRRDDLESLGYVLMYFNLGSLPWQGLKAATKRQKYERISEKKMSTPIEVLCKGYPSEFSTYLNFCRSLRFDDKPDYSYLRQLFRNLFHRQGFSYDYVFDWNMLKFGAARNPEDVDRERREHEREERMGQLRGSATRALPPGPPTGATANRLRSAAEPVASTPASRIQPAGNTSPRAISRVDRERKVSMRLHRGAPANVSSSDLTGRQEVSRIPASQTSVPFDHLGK
Sequence of CK1δ (P48730 whole entry): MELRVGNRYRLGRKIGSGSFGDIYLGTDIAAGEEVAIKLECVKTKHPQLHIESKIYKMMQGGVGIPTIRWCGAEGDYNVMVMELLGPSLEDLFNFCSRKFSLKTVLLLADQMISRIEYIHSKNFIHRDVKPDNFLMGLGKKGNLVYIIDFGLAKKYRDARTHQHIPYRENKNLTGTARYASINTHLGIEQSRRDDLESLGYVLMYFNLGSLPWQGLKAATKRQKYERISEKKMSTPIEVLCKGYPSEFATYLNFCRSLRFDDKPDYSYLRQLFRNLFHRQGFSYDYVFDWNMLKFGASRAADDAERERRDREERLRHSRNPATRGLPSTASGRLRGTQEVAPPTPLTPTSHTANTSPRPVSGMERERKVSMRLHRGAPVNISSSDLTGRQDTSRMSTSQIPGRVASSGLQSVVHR

What is called IC50 is the concentration that gives 50% inhibition. Turning to `CCC1CN(C(=O)NC(C)(C)C)Cc2c(C(N)=O)c(-c3ccc(F)c(Cl)c3)nn21` (single isomer, unassigned) [Compound A98, N^5-(tert-Butyl)-2-(3-chloro-4-fluorophenyl)-7-ethyl-6,7-dihydropyrazolo[1,5-a]pyrazine-3,5(4H)-dicarboxamide], in assay [1], the IC50 was in the range of 0.01 to 10 nM.

For the compound `NC(=O)c1c(-c2ccc(F)cc2)nn2c1CN(C(=O)NC1CCCCC1)CC2` [Compound 3, N^5-Cyclohexyl-2-(4-fluorophenyl)-6,7-dihydropyrazolo[1,5-a]pyrazine-3,5(4H)-dicarboxamide], the IC50 in assay [1] lay in the range of 10 to 100 nM.

As to `CC(C)(NC(=O)N1CCn2nc(-c3cccc(F)c3)c(C(N)=O)c2C1)c1ccc(F)cc1` [Compound 17, 2-(3-Fluorophenyl)-N^5-(2-(4-fluorophenyl)propan-2-yl)-6,7-dihydropyrazolo[1,5-a]pyrazine-3,5(4H)-dicarboxamide], the IC50 in assay [1] lay in the range of 10 to 100 nM.

As for `CC(C)(NC(=O)N1CCn2nc(-c3cccc(F)c3)c(C(N)=O)c2C1)c1ccccc1` [Compound 25, 2-(3-Fluorophenyl)-N^5-(2-phenylpropan-2-yl)-6,7-dihydropyrazolo[1,5-a]pyrazine-3,5(4H)-dicarboxamide], in assay [1], the IC50 is 10 to 100 nM.

For the compound `NC(=O)c1c(-c2cccc(F)c2)nn2c1CN(C(=O)Nc1ccc(F)c(F)c1)CC2` [Compound 29, N^5-(3,4-Difluorophenyl)-2-(3-fluorophenyl)-6,7-dihydropyrazolo[1,5-a]pyrazine-3,5(4H)-dicarboxamide], in assay [1], the half-maximal inhibitory concentration (IC50) lay within 10 to 100 nM.

As for `NC(=O)c1c(-c2cccc(F)c2)nn2c1CN(C(=O)Nc1cc(Cl)ccc1F)CC2` [Compound 33, N^5-(5-Chloro-2-fluorophenyl)-2-(3-fluorophenyl)-6,7-dihydropyrazolo[1,5-a]pyrazine-3,5(4H)-dicarboxamide], in assay [1], the IC50 fell in the range of 10 to 100 nM.

As for `NC(=O)c1c(-c2cccc(F)c2)nn2c1CN(C(=O)NCc1ccc(Cl)c(Cl)c1)CC2` [Compound 46, N^5-(3,4-Dichlorobenzyl)-2-(3-fluorophenyl)-6,7-dihydropyrazolo[1,5-a]pyrazine-3,5(4H)-dicarboxamide], the concentration for half-maximal inhibition (IC50) in assay [1] was 10 to 100 nM.

`COc1ccc(NC(=O)N2CCn3nc(-c4cccc(F)c4)c(C(N)=O)c3C2)cc1OC` [Compound 66, N^5-(3,4-Dimethoxyphenyl)-2-(3-fluorophenyl)-6,7-dihydropyrazolo[1,5-a]pyrazine-3,5(4H)-dicarboxamide]: in assay [1], the IC50 fell in the range of 10 to 100 nM.

On to `NC(=O)c1c(-c2cccc(F)c2)nn2c1CN(C(=O)Nc1cccnc1)CC2` [Compound 68, 2-(3-Fluorophenyl)-N^5-(pyridin-3-yl)-6,7-dihydropyrazolo[1,5-a]pyrazine-3,5(4H)-dicarboxamide], for which the half-inhibitory concentration (IC50) in assay [1] was in the range of 10 to 100 nM.

For `NC(=O)c1c(-c2cccc(F)c2)nn2c1CN(C(=O)Nc1cncnc1)CC2` [Compound 84, 2-(3-Fluorophenyl)-N^5-(pyrimidin-5-yl)-6,7-dihydropyrazolo[1,5-a]pyrazine-3,5(4H)-dicarboxamide], the IC50 in assay [1] is 10 to 100 nM.

In the case of `Cc1ccc(NC(=O)N2CCn3nc(-c4cccc(F)c4)c(C(N)=O)c3C2)cn1` [Compound 86, 2-(3-Fluorophenyl)-N^5-(6-methylpyridin-3-yl)-6,7-dihydropyrazolo[1,5-a]pyrazine-3,5(4H)-dicarboxamide], the 50% inhibitory concentration (IC50) in assay [1] was in the range of 10 to 100 nM.

Turning to `NC(=O)c1c(-c2cccc(F)c2)nn2c1CN(C(=O)Nc1ccc(F)nc1)CC2` [Compound 87, 2-(3-Fluorophenyl)-N^5-(6-fluoropyridin-3-yl)-6,7-dihydropyrazolo[1,5-a]pyrazine-3,5(4H)-dicarboxamide], the IC50 in assay [1] lay in the range of 10 to 100 nM.

`NC(=O)c1c(-c2cccc(F)c2)nn2c1CN(C(=O)Nc1ccc(OC(F)F)cc1)CC2` [Compound 89, N^5-(4-(Difluoromethoxy)phenyl)-2-(3-fluorophenyl)-6,7-dihydropyrazolo[1,5-a]pyrazine-3,5(4H)-dicarboxamide]: the concentration for half-maximal inhibition (IC50) in assay [1] lay in the range of 10 to 100 nM.

For the compound `NC(=O)c1c(-c2cccc(F)c2)nn2c1CN(C(=O)Nc1ccnc(Cl)c1)CC2` [Compound 90, N^5-(2-Chloropyridin-4-yl)-2-(3-fluorophenyl)-6,7-dihydropyrazolo[1,5-a]pyrazine-3,5(4H)-dicarboxamide], the concentration for half-maximal inhibition (IC50) in assay [1] lay within 10 to 100 nM.

Regarding `CC(=O)N1CCC(NC(=O)N2CCn3nc(-c4cccc(F)c4)c(C(N)=O)c3C2)CC1` [Compound 97], the IC50 in assay [1] was 10 to 100 nM.

For the compound `NC(=O)c1c(-c2cccc(F)c2)nn2c1CN(C(=O)NC1CCN(S(=O)(=O)C3CC3)CC1)CC2` [Compound 102, N^5-(1-(Cyclopropylsulfonyl)piperidin-4-yl)-2-(3-fluorophenyl)-6,7-dihydropyrazolo[1,5-a]pyrazine-3,5(4H)-dicarboxamide], in assay [1], the concentration for half-maximal inhibition (IC50) lay in the range of 10 to 100 nM.

Turning to `CC(C)(C)NC(=O)N1CCn2nc(-c3cc(F)cc(F)c3)c(C(N)=O)c2C1` [Compound 105, N^5-(tert-Butyl)-2-(3,5-difluorophenyl)-6,7-dihydropyrazolo[1,5-a] pyrazine-3,5(4H)-dicarboxamide], the IC50 in assay [1] is 10 to 100 nM.

As to `COc1cc(F)cc(-c2nn3c(c2C(N)=O)CN(C(=O)NC(C)(C)C)CC3)c1` [Compound 137, N^5-(tert-Butyl)-2-(3-fluoro-5-methoxyphenyl)-6,7-dihydropyrazolo[1,5-a] pyrazine-3,5(4H)-dicarboxamide], the IC50 in assay [1] was in the range of 10 to 100 nM.

On to `NC(=O)c1c(-c2cccc(Cl)c2)nn2c1CN(C(=O)NC(CF)(CF)CF)CC2` [Compound A41, 2-(3-Chlorophenyl)-N^5-(1,3-difluoro-2-(fluoromethyl)propan-2-yl)-6,7-dihydropyrazolo[1,5-a] pyrazine-3,5(4H)-dicarboxamide], for which the half-inhibitory concentration (IC50) in assay [2] lay within 0.01 to 10 nM.

`N#CC1(NC(=O)N2CCn3nc(-c4cccc(Cl)c4)c(C(N)=O)c3C2)CCC1` [Compound A43, 2-(3-Chlorophenyl)-N^5-(1-cyanocyclobutyl)-6,7-dihydropyrazolo[1,5-a]pyrazine-3,5(4H)-dicarboxamide]: in assay [2], the IC50 is 0.01 to 10 nM.

For `CC1(NC(=O)N2CCn3nc(-c4cccc(Cl)c4)c(C(N)=O)c3C2)CCC1` [Compound A44, 2-(3-Chlorophenyl)-N^5-(1-methylcyclobutyl)-6,7-dihydropyrazolo[1,5-a]pyrazine-3,5(4H)-dicarboxamide], the concentration for half-maximal inhibition (IC50) in assay [2] was in the range of 0.01 to 10 nM.

Take `N#CC1(NC(=O)N2CCn3nc(-c4cccc(Cl)c4)c(C(N)=O)c3C2)CC1` [Compound A45, 2-(3-Chlorophenyl)-N^5-(1-cyanocyclopropyl)-6,7-dihydropyrazolo[1,5-a]pyrazine-3,5(4H)-dicarboxamide]: in assay [2], the concentration for half-maximal inhibition (IC50) lay in the range of 0.01 to 10 nM.

Take `NC(=O)c1c(-c2ccc(F)c(Cl)c2)nn2c1CN(C(=O)NC13CCC(C(F)F)(CC1)CC3)CC2` [Compound A57, 2-(3-Chloro-4-fluorophenyl)-N^5-(4-(difluoromethyl)bicyclo[2.2.2]octan-1-yl)-6,7-dihydropyrazolo[1,5-a]pyrazine-3,5(4H)-dicarboxamide]: the concentration for half-maximal inhibition (IC50) in assay [2] fell in the range of 0.01 to 10 nM.

For the compound `COC12CCC(NC(=O)N3CCn4nc(-c5ccc(F)c(Cl)c5)c(C(N)=O)c4C3)(CC1)CC2` [Compound A59, 2-(3-Chloro-4-fluorophenyl)-N^5-(4-methoxybicyclo[2.2.2]octan-1-yl)-6,7-dihydropyrazolo[1,5-a]pyrazine-3,5(4H)-dicarboxamide], in assay [2], the IC50 fell in the range of 0.01 to 10 nM.

Turning to `COC12CCC(NC(=O)N3CCn4nc(-c5ccc(F)c(Cl)c5)c(C(N)=O)c4C3)(CC1)C(=O)C2` [Compound A60, 2-(3-Chloro-4-fluorophenyl)-N^5-(4-methoxy-2-oxobicyclo[2.2.2]octan-1-yl)-6,7-dihydropyrazolo[1,5-a]pyrazine-3,5(4H)-dicarboxamide], the IC50 in assay [2] lay within 0.01 to 10 nM.

Turning to `N#CC12C3C4C1C1C2C3C41NC(=O)N1CCn2nc(-c3ccc(F)c(Cl)c3)c(C(N)=O)c2C1` (stereo not shown) [Compound A70, N^5-(4-Cyanocuban-1-yl)-2-(3-chloro-4-fluorophenyl)-6,7-dihydropyrazolo[1,5-a]pyrazine-3,5(4H)-dicarboxamide], in assay [2], the half-inhibitory concentration (IC50) lay within 0.01 to 10 nM.

Take `NC(=O)c1c(-c2ccc(F)c(Cl)c2)nn2c1CN(C(=O)NC13C4C5C1C1C3C4C51F)CC2` (stereo not shown) [Compound A71, N^5-(4-Fluorocuban-1-yl)-2-(3-chloro-4-fluorophenyl)-6,7-dihydropyrazolo[1,5-a]pyrazine-3,5(4H)-dicarboxamide]: the 50% inhibitory concentration (IC50) in assay [2] was 0.01 to 10 nM.

Take `NC(=O)c1c(-c2ccc(F)c(Cl)c2)nn2c1CN(C(=O)NC13C4C5C6C4C1C6C53)CC2` (stereo not shown) [Compound A72, N^5-(Cuban-1-yl)-2-(3-chloro-4-fluorophenyl)-6,7-dihydropyrazolo[1,5-a]pyrazine-3,5(4H)-dicarboxamide]: the concentration for half-maximal inhibition (IC50) in assay [2] lay within 0.01 to 10 nM.

On to `NC(=O)c1c(-c2ccc(F)c(Cl)c2)nn2c1CN(C(=O)NC13CCC(CC1)C3)CC2` [Compound A73, N^5-(Bicyclo[2.2.1]heptan-1-yl)-2-(3-chloro-4-fluorophenyl)-6,7-dihydropyrazolo[1,5-a]pyrazine-3,5(4H)-dicarboxamide], for which the 50% inhibitory concentration (IC50) in assay [2] was 0.01 to 10 nM.

For `N#Cc1ccc(C23CCC(NC(=O)N4CCn5nc(-c6cccc(Cl)c6)c(C(N)=O)c5C4)(CC2)CC3)cc1` [Compound A74, 2-(3-Chlorophenyl)-N^5-(4-(4-cyanophenyl)bicyclo[2.2.2]octan-1-yl)-6,7-dihydropyrazolo[1,5-a]pyrazine-3,5(4H)-dicarboxamide], the half-inhibitory concentration (IC50) in assay [2] was 0.01 to 10 nM.

For `NC(=O)c1c(-c2cccc(Cl)c2)nn2c1CN(C(=O)NC13CCC(F)(CC1)CC3)CC2` [Compound A75, 2-(3-Chlorophenyl)-N^5-(4-fluorobicyclo[2.2.2]octan-1-yl)-6,7-dihydropyrazolo[1,5-a]pyrazine-3,5(4H)-dicarboxamide], the IC50 in assay [2] fell in the range of 0.01 to 10 nM.

The values are drawn from US9273058B2 (BRISTOL-MYERS SQUIBB COMPANY, priority 2013, dated 2016).
